Columns and labels:
[1] = tested on: human PPARα; details: ref Behr et al. 2020b, cited from earlier work; for In vitro activation of human PPARα: reporter gene assays; for PPARα activation compared to the positive control GW7647: even at concentrations 250 times greater than GW7647
[2] = Absolute quantitation of circulating PFAS; assay type: in vivo, mouse; details: for Absolute Plasma PFAS Levels: Fold Change PFAS Female vs. PFAS Male / Absolute Plasma PFAS Levels: PFAS Female Average Concentration / Absolute Plasma PFAS Levels: PFAS male Average Concentration / Absolute Plasma PFAS Levels: Overall Average Concentration: 12 weeks; for concentration at 12 weeks: C57BL/6J, mouse, plasma, oral; for Absolute Plasma PFAS Levels: PFAS Female Average Concentration: exposed females; for Absolute Plasma PFAS Levels: PFAS Female Average Concentration / Absolute Plasma PFAS Levels: PFAS male Average Concentration: 2 mg/L each in drinking water, n=3; for Absolute Plasma PFAS Levels: PFAS male Average Concentration: exposed males; for Absolute Plasma PFAS Levels: Overall Average Concentration: exposed mice of both sexes
[3] = Relative plasma PFAS levels; assay type: in vivo, mouse; details: for Relative Plasma PFAS Levels: Fold Change PFAS Female vs. PFAS Male / Relative Plasma PFAS Levels: Fold Change PFAS vs. Vehicle: 12 weeks of the 5-PFAS mixture, 2 mg/L each in drinking water; for Plasma level, fold increase in PFAS-exposed females compared to vehicle / Plasma level, fold increase in PFAS-exposed males compared to vehicle: 12 weeks
[4] = Relative hepatic PFAS levels; assay type: in vivo, mouse; details: liver; for Relative Hepatic PFAS Levels: Fold Change PFAS Female vs. PFAS Male / Relative Hepatic PFAS Levels: Fold Change PFAS vs. Vehicle: 12 weeks of the 5-PFAS mixture, 2 mg/L each in drinking water; for Hepatic level, fold increase in PFAS-exposed females compared to vehicle / Hepatic level, fold increase in PFAS-exposed males compared to vehicle: 12 weeks
[5] = ref Olsen et al. 2007; cited from earlier work
[6] = cited from earlier work; for Median serum concentration: general U.S. population, NHANES 2003-2004, ref Nelson et al. 2010
[7] = tested on: humans; details: cited from earlier work

| Compound | In vitro activation of human PPARα [1] | Absolute Plasma PFAS Levels: Fold Change PFAS Female vs. PFAS Male [2] | concentration at 12 weeks ([2]; both) | Relative Plasma PFAS Levels: Fold Change PFAS Female vs. PFAS Male [3] | Plasma level, fold increase in PFAS-exposed females compared to vehicle [3] | Plasma level, fold increase in PFAS-exposed males compared to vehicle [3] | Relative Hepatic PFAS Levels: Fold Change PFAS Female vs. PFAS Male [4] | Relative Hepatic PFAS Levels: Fold Change PFAS vs. Vehicle [4] | Hepatic level, fold increase in PFAS-exposed females compared to vehicle [4] | Hepatic level, fold increase in PFAS-exposed males compared to vehicle [4] | Biological half-life in human serum [5] | PPARα activation compared to the positive control GW7647 [1] | Absolute Plasma PFAS Levels: PFAS Female Average Concentration [2] | Absolute Plasma PFAS Levels: PFAS male Average Concentration [2] | Relative Plasma PFAS Levels: Fold Change PFAS vs. Vehicle [3] | Median serum concentration [6] | Absolute Plasma PFAS Levels: Overall Average Concentration [2] | further results |
| --- | --- | --- | --- | --- | --- | --- | --- | --- | --- | --- | --- | --- | --- | --- | --- | --- | --- | --- |
| O=S(=O)(O)C(F)(F)C(F)(F)C(F)(F)C(F)(F)C(F)(F)C(F)(F)F [PFHxS] | capable of PPARα activation | 0.9 fold | 23800 ng/mL | 0.96 fold | 6491 fold | 5414.2 fold | 1.30 fold | 705.46 fold | 2035.7 fold | 387.1 fold | ~8.5 years |  |  |  |  |  |  |  |
| N.O=C(O)C(F)(OC(F)(F)C(F)(F)C(F)(F)F)C(F)(F)F (stereo not shown) [GenX] | capable of PPARα activation | 1.8 fold | 140 ng/mL |  |  |  |  |  |  |  |  | 60-90% |  |  |  |  |  | concentration at 12 weeks [2]: ~100 ng/g; Serum level in a population exposed to PFAS-contaminated water ([6]; not detected above limit of detection, ref Kotlarz et al. 2020): < 2 ng/mL |
| O=C(O)C(F)(F)C(F)(F)C(F)(F)C(F)(F)C(F)(F)C(F)(F)C(F)(F)F [PFOA, perfluorooctanoic acid] | capable of PPARα activation | 3.2 fold | 15400 ng/mL | 1.96 fold | 10883.6 fold | 6936.8 fold | 2.43 fold | 1513.94 fold | 4693.4 fold | 571.9 fold | around 4 years | 60-90% | 23.4 ± 9.0 µg/mL | 7.3 ± 1.8 µg/mL | 10270.75 fold | 3.9 ng/mL |  | Predicted increase in total cholesterol from lowest to highest decile of PFOA ([7]; exposed communities, ref Steenland et al. 2009): 11 to 12 mg/dL; Increase in total cholesterol associated with 1 ppm increase in serum PFOA ([7]; occupationally exposed populations, ref Sakr et al. 2007): 1.06 mg/dL; Average serum concentration ([6]; populations occupationally exposed to PFOA, ref Sakr et al. 2007): 1.13 µg/mL |
| O=C(O)C(F)(F)C(F)(F)C(F)(F)C(F)(F)C(F)(F)C(F)(F)C(F)(F)C(F)(F)F [PFNA, perfluorononanoic acid] |  | 0.8 fold |  |  |  |  |  |  |  |  |  |  | 33.7 ± 7.6 µg/mL | 40.9 ± 10.6 µg/mL |  |  | 37.3 ± 9.1 µg/mL |  |
| O=S(=O)(O)C(F)(F)C(F)(F)C(F)(F)C(F)(F)C(F)(F)C(F)(F)C(F)(F)C(F)(F)F [PFOS, Perfluorooctane sulfonate] | capable of PPARα activation | 0.6 fold |  | 0.77 fold | 545.2 fold | 708.9 fold | 0.92 fold | 188.03 fold | 386.3 fold | 127.2 fold | ~5 years |  | 13.8 ± 2.3 µg/mL | 22.5 ± 4.1 µg/mL | 627.07 fold | 21 ng/mL | 18.1 ± 5.6 µg/mL |  |
